Measurements taken from patent US20260297081A1, “COMPOUNDS AND METHODS OF TREATING CANCERS” (Cullgen Inc., priority 2023, published 2026).

How the values were obtained:
MCF7 cells = test: Anti-proliferation (viability) of MCF7 cells (Table 7, FIG. 2B); format: cell-based; conditions: Homo sapiens, MCF7, MCF7 cells, 3-6 days, 10-point serial dilution; read-out: GI IC50 in MCF-7
CDK4 = CDK4 (Homo sapiens, UniProt P11802+Q16531); test: HiBiT detection of HiBiT-tagged CDK4 protein level in MCF7 cells, 16 hours (Table 8); format: cell-based; design: expressed in transfected cells; host or cells: MCF7; conditions: MCF7 cells stably expressing HiBiT tagged target proteins; for activity at 0.01 µM: 10 nM, read-out: % CDK4 Relative Level (10 nM); for activity at 0.1 µM: 100 nM, read-out: % CDK4 Relative Level (100 nM)
Chain of CDK4 (P11802 whole entry): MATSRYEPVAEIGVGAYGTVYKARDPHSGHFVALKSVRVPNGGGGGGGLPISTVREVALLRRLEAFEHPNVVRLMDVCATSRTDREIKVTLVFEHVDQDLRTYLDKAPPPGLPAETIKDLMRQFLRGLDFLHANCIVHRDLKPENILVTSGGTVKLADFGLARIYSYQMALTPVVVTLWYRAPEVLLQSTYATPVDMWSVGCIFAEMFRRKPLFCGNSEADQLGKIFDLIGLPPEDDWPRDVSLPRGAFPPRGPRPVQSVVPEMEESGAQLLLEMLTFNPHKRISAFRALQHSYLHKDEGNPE
Chain of CDK4 (P24385 whole entry partner): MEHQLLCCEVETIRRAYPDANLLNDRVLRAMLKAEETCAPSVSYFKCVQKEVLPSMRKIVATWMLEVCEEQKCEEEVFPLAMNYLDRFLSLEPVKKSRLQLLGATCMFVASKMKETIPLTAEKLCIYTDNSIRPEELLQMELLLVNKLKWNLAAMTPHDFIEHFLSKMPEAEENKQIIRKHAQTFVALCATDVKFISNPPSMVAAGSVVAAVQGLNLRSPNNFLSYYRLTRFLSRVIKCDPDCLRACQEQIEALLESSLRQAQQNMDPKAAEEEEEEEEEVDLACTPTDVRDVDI
Chain of CDK4 (Q16531 2-1140 limits assumed): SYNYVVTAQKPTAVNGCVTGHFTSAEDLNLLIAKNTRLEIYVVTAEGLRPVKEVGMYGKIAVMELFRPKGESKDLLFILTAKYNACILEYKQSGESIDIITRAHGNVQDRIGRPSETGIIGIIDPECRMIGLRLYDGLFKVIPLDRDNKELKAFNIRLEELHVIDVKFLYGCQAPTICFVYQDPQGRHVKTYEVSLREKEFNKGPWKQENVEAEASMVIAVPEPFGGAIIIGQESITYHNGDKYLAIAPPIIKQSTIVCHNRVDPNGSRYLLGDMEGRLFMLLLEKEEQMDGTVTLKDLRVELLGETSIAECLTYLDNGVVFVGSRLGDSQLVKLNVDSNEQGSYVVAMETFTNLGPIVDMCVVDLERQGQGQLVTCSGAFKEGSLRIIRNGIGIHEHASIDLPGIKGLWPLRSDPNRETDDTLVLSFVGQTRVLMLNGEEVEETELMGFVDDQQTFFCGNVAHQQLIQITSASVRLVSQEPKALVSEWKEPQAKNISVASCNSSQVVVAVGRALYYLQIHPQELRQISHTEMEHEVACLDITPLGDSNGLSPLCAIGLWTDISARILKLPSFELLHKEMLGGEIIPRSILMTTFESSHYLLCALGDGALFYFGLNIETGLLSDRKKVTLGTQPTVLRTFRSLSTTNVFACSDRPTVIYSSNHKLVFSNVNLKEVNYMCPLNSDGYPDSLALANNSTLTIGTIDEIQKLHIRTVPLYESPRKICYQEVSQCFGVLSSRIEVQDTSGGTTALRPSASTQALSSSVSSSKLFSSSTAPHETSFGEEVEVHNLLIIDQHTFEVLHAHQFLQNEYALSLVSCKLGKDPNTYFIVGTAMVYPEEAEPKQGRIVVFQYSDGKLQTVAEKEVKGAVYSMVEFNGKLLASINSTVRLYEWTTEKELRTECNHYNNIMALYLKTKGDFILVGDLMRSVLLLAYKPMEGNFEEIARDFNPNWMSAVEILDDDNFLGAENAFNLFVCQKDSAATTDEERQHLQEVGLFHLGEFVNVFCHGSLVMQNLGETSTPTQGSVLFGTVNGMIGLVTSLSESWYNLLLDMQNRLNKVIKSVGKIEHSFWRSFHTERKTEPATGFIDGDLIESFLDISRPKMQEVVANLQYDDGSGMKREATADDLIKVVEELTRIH
Method: HiBiT detection system quantitatively measures total amounts of HiBiT-tagged proteins using a luminescent based method. MCF7 cells stably expressing HiBiT tagged target proteins were treated with heterobifunctional compounds at indicated concentrations for 16 hours, then lysed with Nano-Glo HiBiT Lytic detection reagents.

SMILES	IC50 (MCF7 cells) [µM]	activity at 0.01 µM (CDK4) [%]	activity at 0.1 µM (CDK4) [%]
CNc1ccc(C(=O)Nc2ccc(N(C)C)nn2)c(NCCOCCOCCC(=O)N2CCN(Cc3ccc(Nc4ncc(F)c(-c5cc(F)c6nc(C)n(C(C)C)c6c5)n4)nc3)CC2)n1 [CPD-607, N-(6-(dimethylamino)pyridazin-3-yl)-2-((2-(2-(3-(4-((6-((5-fluoro-4-(4-fluoro-1-isopropyl-2-methyl-1H-benzo[d]imidazol-6-yl)pyrimidin-2-yl)amino)pyridin-3-yl)methyl)piperazin-1-yl)-3-oxopropoxy)ethoxy)ethyl)amino)-6-(methylamino)nicotinamide]	> 0.1	> 85	> 85
CC(=O)c1c(C)c2cnc(Nc3ccc(CN4CCN(CC(=O)N(C)C5CC6(CC(Nc7nc(NC(C)C)ccc7C(=O)Nc7ccc(N(C)C)nn7)C6)C5)CC4)cn3)nc2n(C2CCCC2)c1=O (stereo not drawn) [CPD-594, 2-((6-(2-(4-((6-((6-acetyl-8-cyclopentyl-5-methyl-7-oxo-7,8-dihydropyrido[2,3-d]pyrimidin-2-yl)amino)pyridin-3-yl)methyl)piperazin-1-yl)-N-methylacetamido)spiro[3.3]heptan-2-yl)amino)-N-(6-(dimethylamino)pyridazin-3-yl)-6-(isopropylamino)nicotinamide]	< 0.05	55 to 85	55 to 85
CC(=O)c1c(C)c2cnc(Nc3ccc(CN4CCN(CC(=O)N5CC6(CC(Nc7nc(NC(C)C)ccc7C(=O)Nc7ccc(N(C)C)nn7)C6)C5)CC4)cn3)nc2n(C2CCCC2)c1=O [CPD-422, 2-((2-(2-(4-((6-((6-acetyl-8-cyclopentyl-5-methyl-7-oxo-7,8-dihydropyrido[2,3-d]pyrimidin-2-yl)amino)pyridin-3-yl)methyl)piperazin-1-yl)acetyl)-2-azaspiro[3.3]heptan-6-yl)amino)-N-(6-(dimethylamino)pyridazin-3-yl)-6-(isopropylamino)nicotinamide]	< 0.05	> 85	55 to 85
CNc1ccc(C(=O)Nc2ccc(N(C)C)nn2)c(NCCOCCOCCC(=O)N2CCN(c3ccc(Nc4ncc5cc6n(c5n4)C4(CCCCC4)CNC6=O)nc3)CC2)n1 [CPD-639, N-(6-(dimethylamino)pyridazin-3-yl)-6-(methylamino)-2-((2-(2-(3-oxo-3-(4-(6-((6′-oxo-7′,8′-dihydro-6′H-spiro[cyclohexane-1,9′-pyrazino[1′,2′:1,5]pyrrolo[2,3-d]pyrimidin]-2′-yl)amino)pyridin-3-yl)piperazin-1-yl)propoxy)ethoxy)ethyl)amino)nicotinamide]	> 0.1	> 85	> 85
CNc1ccc(C(=O)Nc2ccc(N(C)C)nn2)c(NCCCCCC(=O)N2CCN(Cc3ccc(Nc4ncc(F)c(-c5cc(F)c6nc(C)n(C(C)C)c6c5)n4)nc3)CC2)n1 [CPD-603, N-(6-(dimethylamino)pyridazin-3-yl)-2-((6-(4-((6-((5-fluoro-4-(4-fluoro-1-isopropyl-2-methyl-1H-benzo[d]imidazol-6-yl)pyrimidin-2-yl)amino)pyridin-3-yl)methyl)piperazin-1-yl)-6-oxohexyl)amino)-6-(methylamino)nicotinamide]	> 0.1	55 to 85	55 to 85
CC(=O)c1c(C)c2cnc(Nc3ccc(N4CCN(C5CCN(C(=O)C67CC(Nc8nc(C(C)C)ccc8C(=O)Nc8ccc(N(C)C)nn8)(C6)C7)C5)CC4)cn3)nc2n(C2CCCC2)c1=O (stereo not drawn) [CPD-580, 2-((3-(3-(4-(6-((6-acetyl-8-cyclopentyl-5-methyl-7-oxo-7,8-dihydropyrido[2,3-d]pyrimidin-2-yl)amino)pyridin-3-yl)piperazin-1-yl)pyrrolidine-1-carbonyl)bicyclo[1.1.1]pentan-1-yl)amino)-N-(6-(dimethylamino)pyridazin-3-yl)-6-isopropylnicotinamide]	< 0.05	55 to 85	55 to 85
CC(=O)c1c(C)c2cnc(Nc3ccc(C(C)N4CCN(CC(=O)NC5CC6(C5)CC(Nc5nc(NC(C)C)ccc5C(=O)Nc5ccc(N(C)C)nn5)C6)CC4)cn3)nc2n(C2CCCC2)c1=O (stereo not drawn) [CPD-586, 2-((6-(2-(4-(1-(6-((6-acetyl-8-cyclopentyl-5-methyl-7-oxo-7,8-dihydropyrido[2,3-d]pyrimidin-2-yl)amino)pyridin-3-yl)ethyl)piperazin-1-yl)acetamido)spiro[3.3]heptan-2-yl)amino)-N-(6-(dimethylamino)pyridazin-3-yl)-6-(isopropylamino)nicotinamide]	< 0.05	55 to 85	55 to 85
CC(=O)c1c(C)c2cnc(Nc3ccc(CN4CCN(CC(=O)NC5CC6(C5)CC(Nc5nc(NC(C)C)ccc5C(=O)Nc5cc7n(n5)CCC7)C6)CC4)cn3)nc2n(C2CCCC2)c1=O (stereo not drawn) [CPD-584, 2-((6-(2-(4-((6-((6-acetyl-8-cyclopentyl-5-methyl-7-oxo-7,8-dihydropyrido[2,3-d]pyrimidin-2-yl)amino)pyridin-3-yl)methyl)piperazin-1-yl)acetamido)spiro[3.3]heptan-2-yl)amino)-N-(5,6-dihydro-4H-pyrrolo[1,2-b]pyrazol-2-yl)-6-(isopropylamino) nicotinamide]	< 0.05	55 to 85	55 to 85
CNc1ccc(C(=O)Nc2ccc(N(C)C)nn2)c(NCCCNC(=O)CN2CCN(c3ccc(Nc4ncc5cc(C(=O)N(C)C)n(C6CCCC6)c5n4)nc3)CC2)n1 [CPD-625, 7-cyclopentyl-2-((5-(4-(2-((3-((3-((6-(dimethylamino)pyridazin-3-yl)carbamoyl)-6-(methylamino)pyridin-2-yl)amino)propyl)amino)-2-oxoethyl)piperazin-1-yl)pyridin-2-yl)amino)-N,N-dimethyl-7H-pyrrolo[2,3-d]pyrimidine-6-carboxamide]	> 0.1	55 to 85	55 to 85
CNc1ccc(C(=O)Nc2ccc(N(C)C)nn2)c(NCCCCCCC(=O)N2CCN(c3ccc(Nc4ncc5cc6n(c5n4)C4(CCCCC4)CNC6=O)nc3)CC2)n1 [CPD-636, N-(6-(dimethylamino)pyridazin-3-yl)-6-(methylamino)-2-((7-oxo-7-(4-(6-((6′-oxo-7′,8′-dihydro-6′H-spiro[cyclohexane-1,9′-pyrazino[1′,2′:1,5]pyrrolo[2,3-d]pyrimidin]-2′-yl)amino)pyridin-3-yl)piperazin-1-yl)heptyl)amino)nicotinamide]	> 0.1	55 to 85	55 to 85
CC(=O)c1c(C)c2cnc(Nc3ccc(N4CCC5(CC4)CC5C(=O)N4CCC(Nc5nc(NC(C)C)ccc5C(=O)Nc5ccc(N(C)C)nn5)CC4)cn3)nc2n(C2CCCC2)c1=O (stereo not drawn) [CPD-407, 2-((1-(6-(6-((6-acetyl-8-cyclopentyl-5-methyl-7-oxo-7,8-dihydropyrido[2,3-d]pyrimidin-2-yl)amino)pyridin-3-yl)-6-azaspiro[2.5]octane-1-carbonyl)piperidin-4-yl)amino)-N-(6-(dimethylamino)pyridazin-3-yl)-6-(isopropylamino)nicotinamide]	< 0.05	55 to 85	55 to 85
CC(C)Nc1ccc(C(=O)Nc2ccc(N(C)C)nn2)c(NC2CC3(C2)CN(C(=O)CN2CCN(Cc4ccc(Nc5ncc6cc7n(c6n5)C5(CCCCC5)CNC7=O)nc4)CC2)C3)n1 [CPD-557, N-(6-(dimethylamino)pyridazin-3-yl)-6-(isopropylamino)-2-((2-(2-(4-((6-((6′-oxo-7′,8′-dihydro-6′H-spiro[cyclohexane-1,9′-pyrazino[1′,2′:1,5]pyrrolo[2,3-d]pyrimidin]-2′-yl)amino)pyridin-3-yl)methyl)piperazin-1-yl)acetyl)-2-azaspiro[3.3]heptan-6-yl)amino)nicotinamide]	> 0.1	> 85	> 85
CNc1ccc(C(=O)Nc2ccc(N(C)C)nn2)c(NCCOCCC(=O)N2CCN(c3ccc(Nc4ncc5cc(C(=O)N(C)C)n(C6CCCC6)c5n4)nc3)CC2)n1 [CPD-622, 7-cyclopentyl-2-((5-(4-(3-(2-((3-((6-(dimethylamino)pyridazin-3-yl)carbamoyl)-6-(methylamino)pyridin-2-yl)amino)ethoxy)propanoyl)piperazin-1-yl)pyridin-2-yl)amino)-N,N-dimethyl-7H-pyrrolo[2,3-d]pyrimidine-6-carboxamide]	> 0.1	55 to 85	55 to 85
CNc1ccc(C(=O)Nc2ccc(N(C)C)nn2)c(NCCCCCCCC(=O)N2CCN(c3ccc(Nc4ncc5cc(C(=O)N(C)C)n(C6CCCC6)c5n4)nc3)CC2)n1 [CPD-621, 7-cyclopentyl-2-((5-(4-(8-((3-((6-(dimethylamino)pyridazin-3-yl)carbamoyl)-6-(methylamino)pyridin-2-yl)amino)octanoyl)piperazin-1-yl)pyridin-2-yl)amino)-N,N-dimethyl-7H-pyrrolo[2,3-d]pyrimidine-6-carboxamide]	> 0.1	55 to 85	55 to 85
CNc1ccc(C(=O)Nc2ccc(N(C)C)nn2)c(NCCCCCCCNC(=O)CN2CCN(c3ccc(Nc4ncc5cc6n(c5n4)C4(CCCCC4)CNC6=O)nc3)CC2)n1 [CPD-645, N-(6-(dimethylamino)pyridazin-3-yl)-6-(methylamino)-2-((7-(2-(4-(6-((6′-oxo-7′,8′-dihydro-6′H-spiro[cyclohexane-1,9′-pyrazino[1′,2′:1,5]pyrrolo[2,3-d]pyrimidin]-2′-yl)amino)pyridin-3-yl)piperazin-1-yl)acetamido)heptyl)amino)nicotinamide]	> 0.1	> 85	> 85
